Experimental data published in PMC9883252 (iScience, 2023).

Experiments:
[1] = system: P. falciparum gametocytes (NF54 and 3601E1); assay: Activity against synchronous gametocytes; type: cell-based, Plasmodium falciparum; conditions: stage V
[2] = system: P. falciparum NF54 strain; assay: Inhibition activity in the asexual blood stages; type: cell-based; conditions: Plasmodium falciparum, NF54, 72 h, read-out: Pf IC50 (mean)

IC50 [2] [nM] | SMILES | killing of late stage gametocytes [1]
– | COc1ccc(C[C@H](N)C(=O)N[C@H]2[C@@H](O)[C@H](n3cnc4c(N(C)C)ncnc43)O[C@@H]2CO)cc1 [Puromycin, puromycin] | does not reach complete killing
410 | COc1ccc2cc1Oc1ccc(cc1)C[C@@H]1NCCc3cc(OC)c4c(c31)Oc1cc3c(cc1O4)CCN(C)[C@H]3C2 [trilobine] | –
